Test results reported in the NIST ThermoML archive (doi:10.1016/j.tca.2013.03.025).
Where “and” joins values, the source holds several entries; their conditions need not be identical. Equal values may be shown once.

Legend:
[1] = refractive index (Na D-line) (dimensionless); conditions: 101.33 kPa, Liquid, Standard Abbe refractometry
[2] = 101 kPa, Liquid; for viscosity: Concentric cylinders viscometry; for mass density: Vibrating tube method
[3] = xn = mol fraction of the nth substance listed; conditions: 101 kPa, Liquid, x2 = 0; for viscosity: Concentric cylinders viscometry; for mass density: Vibrating tube method
[4] = refractive index (Na D-line) (dimensionless); xn = mol fraction of the nth substance listed; conditions: 101 kPa, Liquid, Standard Abbe refractometry, x2 = 0

CC(O)CO (stereo not drawn) [1,2-propanediol]
Conditions	mass density, [2] [kg/m3]	refractive index, [1]	viscosity, [2] [mPa·s]
288.15 K	1039.87	1.43437	82.54
293.15 K	1036.25	1.4327	59.62
298.15 K	1032.56	1.43102	44.03
303.15 K	1028.88	1.42934	33.16
308.15 K	1025.14	1.42764	25.45
313.15 K	1021.35	1.42591	19.85
318.15 K	1017.52	1.4242	15.73
323.15 K	1013.66	1.42246	12.64

CC(O)CO (stereo not drawn) [1,2-propanediol] + CCCCOC(=O)C(C)O
Conditions	mass density, [3] [kg/m3]	refractive index, [4]	viscosity, [3] [mPa·s]
288.15 K	1039.87	1.43437	82.54
293.15 K	1036.25	1.4327	59.62
298.15 K	1032.56	1.43102	44.03
303.15 K	1028.88	1.42934	33.16
308.15 K	1025.14	1.42764	25.45
313.15 K	1021.35	1.42591	19.85
318.15 K	1017.52	1.4242	15.73
323.15 K	1013.66	1.42246	12.64

CCCCOC(=O)C(C)O (stereo not drawn) [butyl 2-hydroxypropanoate]
Conditions	mass density, [2] [kg/m3]	refractive index, [1]	viscosity, [2]
288.15 K	987.269	1.42379	4.628 mPa·s
293.15 K	982.366	1.42152	3.88 mPa·s
298.15 K	977.448	1.41925	3.307 mPa·s
303.15 K	972.515	1.41697	2.85 mPa·s and 2.86 mPa·s
308.15 K	967.567	1.41469 and 1.4147	2.481 mPa·s
313.15 K	962.603	1.4124 and 1.41241	2.181 mPa·s
318.15 K	957.624	1.41006 and 1.41005	1.935 mPa·s
323.15 K	952.631	1.40778	1.728 mPa·s

OCCCO [propan-1,3-diol]
Conditions	mass density, [2] [kg/m3]	refractive index, [1]	viscosity, [2] [mPa·s]
288.15 K	1055.96	1.44072	66.71
293.15 K	1052.86	1.43932	52.02
298.15 K	1049.75	1.43793	41.11
303.15 K	1046.63	1.43653	32.89
308.15 K	1043.5	1.43512	26.61
313.15 K	1040.35	1.43374	21.76
318.15 K	1037.17	1.43232	17.97
323.15 K	1033.98	1.43087	14.97

OCCCO [propan-1,3-diol] + CCCCOC(=O)C(C)O
Conditions	mass density, [3] [kg/m3]	refractive index, [4]	viscosity, [3] [mPa·s]
288.15 K	1055.96	1.44072	66.71
293.15 K	1052.86	1.43932	52.02
298.15 K	1049.75	1.43793	41.11
303.15 K	1046.63	1.43653	32.89
308.15 K	1043.5	1.43512	26.61
313.15 K	1040.35	1.43374	21.76
318.15 K	1037.17	1.43232	17.97
323.15 K	1033.98	1.43087	14.97

CCCO [propan-1-ol]
Conditions	mass density, [2] [kg/m3]	refractive index, [1]	viscosity, [2] [mPa·s]
288.15 K	807.752	1.38751	2.514
293.15 K	803.767	1.38543	2.208
298.15 K	799.755	1.3834	1.95
303.15 K	795.717	1.38137	1.727
308.15 K	791.638	1.37918	1.542
313.15 K	787.521	1.37702	1.378
318.15 K	783.357	1.37482	1.236
323.15 K	779.137	1.37262	1.124

CCCO [propan-1-ol] + CCCCOC(=O)C(C)O
Conditions	mass density, [3] [kg/m3]	refractive index, [4]	viscosity, [3] [mPa·s]
288.15 K	807.752	1.38751	2.514
293.15 K	803.767	1.38543	2.208
298.15 K	799.755	1.3834	1.95
303.15 K	795.717	1.38137	1.727
308.15 K	791.638	1.37918	1.542
313.15 K	787.521	1.37702	1.378
318.15 K	783.357	1.37482	1.236
323.15 K	779.137	1.37262	1.124
